According to patent US20040122209A1, “Products for regulating the degradation of collagen and methods for identifying same” (Shriners Hospital For Children, priority 2002, published 2004):

What was measured:
Format in all cases: cell-based
[1] = test system: adult bovine articular cartilage; assay: RT-PCR of hypertrophy and degradation genes in bovine articular cartilage explant culture
Experimental: Total RNA was isolated from chondrocytes or cartilage explants by the guanidine isothiocyanate procedure according to Chomczynski and Sacchi (Chomczynski, P. et al., Anal. Biochem. 162:156-9 (1987)) with some modifications. Briefly, chondrocytes (1-2×10^6 cells) or cartilage tissue (200-300 mg) were solubilized in solution D (4 M guanidine isothiocyanate, 20 mM sodium acetate/pH 5.2, 0.1 M 2-mercaptoethanol and 0.5% N-lauroylsarcosine). One volume of isopropanol was added to the mixture and all proteins and nucleic acids were precipitated at −20° C. overnight. […] The total RNA pellet was resuspended in diethyl pyrocarbonate-treated (DEPC) water and the amount of total RNA was measured by reading optical density at 260 nm. […]
One microliter of reverse transcribed total RNA was incubated with 2.5 U of AmpliTaq™ DNA polymerase (Perkin Elmer, Branchburg, N.J.) in 50 mM KCl, 1.5 mM MgCl2, 10 mM Tris-HCl, pH 8.3, 200 μM dNTP mix and 0.5 μmol each of oligonucleotide primers in 50 μl reaction mixture. […] The digital images of the gel were analyzed using NIH 1.60 imaging software to evaluate the pixel intensity of the band of the PCR products. […] The band intensities were determined to be below saturation. […]
MMP-13 expression was maximal by 12 days. Gene expression was determined by RT-PCR analyses of mRNA in the manner used to detect expression of MMPs and cytokines described elsewhere. […]

MMP-13 = assay: RT-PCR of MMP-13 mRNA in human chondrocyte culture; settings: 24 hours incubation; data not shown
Description: (§1) Isolated normal human chondrocytes were used for chondrocyte cultures, detection of integrin expression by FACScan, and cell attachment assays. The dissected normal human cartilage obtained at autopsy was cut into small cubes 2-4 mm in size. Chondrocytes were isolated as previously described (34), with some modifications. Briefly, the cubes were washed three times with medium (A). Thereafter, the diced cartilage was digested with 0.1% (wt/vol) trypsin (Sigma) and 0.02% (wt/vol) EDTA (Sigma) for 60 minutes (25 ml/10 g wet weight tissue) at 37° C. After washing the cartilage with Medium A containing 10% heat-inactivated fetal calf serum (FCS) to inhibit the trypsin, the digestion was continued in the same medium with serum (50 ml/10 g wet weight tissue) containing 0.2% (wt/vol) collagenase (type IA; Sigma) for 16 h at 37° C. with gentle agitation on a gyrotary shaker. Undigested cartilage was removed by filtration through a layer of nylon mesh (Cell Strainer; Becton Dickinson Labware, NJ). […]
(§2) Total RNA was isolated from chondrocytes or cartilage explants by the guanidine isothiocyanate procedure according to Chomczynski and Sacchi (Chomczynski, P. et al., Anal. Biochem. 162:156-9 (1987)) with some modifications. […] The total RNA pellet was resuspended in diethyl pyrocarbonate-treated (DEPC) water and the amount of total RNA was measured by reading optical density at 260 nm. […]

MMP-1 = assay: RT-PCR of MMP-1 mRNA in human chondrocyte culture; settings: 24 hours incubation; data not shown
Description: as §1, §2

With ERGPPGPQGARGFPGTPGLPGVK [CB12-II] the “time at which MMP-13 expression was maximal” value [1] was ≤ 12 days, the “expression of genes characteristic of chondrocyte hypertrophy (COLX, MMP-9, TGF-B1, IHH, MMP-13, CBFA1, SOX 9, bFGF, pTHrP, caspase-3, MT1-MMP, IL-1B, MMP-1)” value ([1]; induction within a 24-48 hr period) was “rapid induction” and the “MMP-13 gene expression (mRNA by RT-PCR)” value (MMP-13) was “weakly upregulated”. For the same sequence, the “MMP-1 gene expression (mRNA by RT-PCR)” value (MMP-1) was “clearly induced”.
